Results taken from paper PMC8319832, “Fine-Tuning of Alkaline Residues on the Hydrophilic Face Provides a Non-toxic Cationic α-Helical Antimicrobial Peptide Against Antibiotic-Resistant ESKAPE Pathogens” (Frontiers in Microbiology, 2021).
Values after ≈ are worked out from the molar mass of the structure shown.

How the values were obtained:
S. epidermidis 888 [1] = assay: Drug sensitivity, Kirby-Bauer test; assay type: cell-based; set-up: key: 'S' represents susceptibility; 'I' represents intermediate efficacy; 'R' represents resistance; settings: clinical isolate
Description: (§1) The bacteria used in this study included the standard strains S. aureus ATCC29213 and ATCC25923, E. faecalis ATCC29212, E. coli ATCC25922 and ATCC35218, A. baumannii ATCC19606, K. pneumoniae ATCC700603 and P. aeruginosa ATCC27853, these strains were purchased from the China Center of Type Culture Collection (CCTCC). The antimicrobial activities of the peptides were also determined against clinically isolated strains S. aureus 4188, 9124, 1176, S. epidermidis 9092, 6943, 888, E. faecalis 901, E. faecium 898, E. coli 2678, 2687, K. pneumoniae 9126, P. aeruginosa 9014, 9042, and A. baumannii 906, 13012, 13079, 9068, these strains were acquired from Taihe Hospital, Hubei University of Medicine. The drug sensitivities of the clinical isolates to the antibiotics were determined by the Kirby-Bauer test ([Chinnambedu et al., 2020]).

S. epidermidis 6943 [2] = assay: Drug sensitivity, Kirby-Bauer test; assay type: cell-based; set-up: key: 'S' represents susceptibility; 'I' represents intermediate efficacy; 'R' represents resistance; settings: clinical isolate, MRSE
Description: as §1

S. epidermidis 9092 [3] = assay: Drug sensitivity, Kirby-Bauer test; assay type: cell-based; set-up: key: 'S' represents susceptibility; 'I' represents intermediate efficacy; 'R' represents resistance; settings: clinical isolate, MRSE
Description: as §1

E. faecalis 901 [4] = assay: Drug sensitivity, Kirby-Bauer test; assay type: cell-based; set-up: key: 'S' represents susceptibility; 'I' represents intermediate efficacy; 'R' represents resistance; settings: clinical isolate
Description: as §1

E. faecium 898 [5] = assay: Drug sensitivity, Kirby-Bauer test; assay type: cell-based, Enterococcus faecium; set-up: key: 'S' represents susceptibility; 'I' represents intermediate efficacy; 'R' represents resistance; settings: clinical isolate
Description: as §1

S. aureus 9124 [6] = assay: Drug sensitivity, Kirby-Bauer test; assay type: cell-based, Staphylococcus aureus; set-up: key: 'S' represents susceptibility; 'I' represents intermediate efficacy; 'R' represents resistance; settings: clinical isolate, MRSA
Description: as §1

S. aureus 1176 [7] = assay: Drug sensitivity, Kirby-Bauer test; assay type: cell-based, Staphylococcus aureus; set-up: key: 'S' represents susceptibility; 'I' represents intermediate efficacy; 'R' represents resistance; settings: clinical isolate
Description: as §1

S. aureus 4188 [8] = assay: Drug sensitivity, Kirby-Bauer test; assay type: cell-based, Staphylococcus aureus; set-up: key: 'S' represents susceptibility; 'I' represents intermediate efficacy; 'R' represents resistance; settings: clinical isolate
Description: as §1

E. coli 2687 = assay: MIC, broth dilution; assay type: cell-based, Escherichia coli; settings: CLSI broth dilution, MHB, 37°C, 20 h, OD630, at least three repeats; clinical isolate, ESBL
Text: (§2) All experiments were repeated at least three times.

E. coli 2678 = assay: MIC, broth dilution; assay type: cell-based, Escherichia coli; settings: CLSI broth dilution, MHB, 37°C, 20 h, OD630, at least three repeats; clinical isolate, ESBL
Text: as §2

E. coli ATCC35218 = assay: MIC, broth dilution; assay type: cell-based, Escherichia coli; settings: CLSI broth dilution, MHB, 37°C, 20 h, OD630, at least three repeats; standard strain
Text: as §2

A. baumannii ATCC 19606 = assay: MIC, broth dilution; assay type: cell-based, Acinetobacter baumannii; settings: CLSI broth dilution, MHB, 37°C, 20 h, OD630, at least three repeats; standard strain
Description: as §2
(§3) To study the influence of physiological ions on the antimicrobial activities of the peptides, The MICs of the peptides were also determined against the standard bacterial strains cultured in MHB containing various salts at their physiological concentrations (150 mM NaCl, 4.5 mM KCl, 1 mM MgCl2, 2 mM CaCl2, 6 μM NH4HCO3, and 4 μM FeCl3) ([Ma et al., 2016]).

P. aeruginosa 9042 = assay: MIC, broth dilution; assay type: cell-based, Pseudomonas aeruginosa; settings: CLSI broth dilution, MHB, 37°C, 20 h, OD630, at least three repeats; clinical isolate
Text: as §2

P. aeruginosa 9014 = assay: MIC, broth dilution; assay type: cell-based, Pseudomonas aeruginosa; settings: CLSI broth dilution, MHB, 37°C, 20 h, OD630, at least three repeats; clinical isolate, CRE, MDR
Text: as §2

A. baumannii 13079 = assay: MIC, broth dilution; assay type: cell-based, Acinetobacter baumannii; settings: CLSI broth dilution, MHB, 37°C, 20 h, OD630, at least three repeats; clinical isolate, CRE, MDR
Text: as §2

A. baumannii 9068 = assay: MIC, broth dilution; assay type: cell-based, Acinetobacter baumannii; settings: CLSI broth dilution, MHB, 37°C, 20 h, OD630, at least three repeats; clinical isolate, CRE, MDR
Text: as §2

A. baumannii 906 = assay: MIC, broth dilution; assay type: cell-based, Acinetobacter baumannii; settings: CLSI broth dilution, MHB, 37°C, 20 h, OD630, at least three repeats; clinical isolate, CRE, MDR
Text: as §2

A. baumannii 13012 = assay: MIC, broth dilution; assay type: cell-based, Acinetobacter baumannii; settings: CLSI broth dilution, MHB, 37°C, 20 h, OD630, at least three repeats; clinical isolate, CRE, MDR
Text: as §2

S. aureus 9124 [9] = assay: MIC, broth dilution; assay type: cell-based, Staphylococcus aureus; settings: CLSI broth dilution, MHB, 37°C, 20 h, OD630, at least three repeats; clinical isolate, MRSA
Text: as §2

S. aureus 1176 [10] = assay: MIC, broth dilution; assay type: cell-based, Staphylococcus aureus; settings: CLSI broth dilution, MHB, 37°C, 20 h, OD630, at least three repeats; clinical isolate
Text: as §2

S. aureus 4188 [11] = assay: MIC, broth dilution; assay type: cell-based, Staphylococcus aureus; settings: CLSI broth dilution, MHB, 37°C, 20 h, OD630, at least three repeats; clinical isolate, penicillin-resistant
Text: as §2

S. epidermidis 888 [12] = assay: MIC, broth dilution; assay type: cell-based; settings: CLSI broth dilution, MHB, 37°C, 20 h, OD630, at least three repeats; clinical isolate
Text: as §2

S. epidermidis 6943 [13] = assay: MIC, broth dilution; assay type: cell-based; settings: CLSI broth dilution, MHB, 37°C, 20 h, OD630, at least three repeats; clinical isolate, MRSE
Text: as §2

S. epidermidis 9092 [14] = assay: MIC, broth dilution; assay type: cell-based; settings: CLSI broth dilution, MHB, 37°C, 20 h, OD630, at least three repeats; clinical isolate, MRSE
Text: as §2

E. faecalis 901 [15] = assay: MIC, broth dilution; assay type: cell-based; settings: CLSI broth dilution, MHB, 37°C, 20 h, OD630, at least three repeats; clinical isolate
Text: as §2

[16] = tested on: K. pneumoniae ATCC 700603; assay: MIC, broth dilution; assay type: cell-based, Klebsiella pneumoniae; settings: CLSI broth dilution, MHB, 37°C, 20 h, OD630, at least three repeats; standard strain
Description: as §2, §3

K. pneumoniae 9126 = assay: MIC, broth dilution; assay type: cell-based, Klebsiella pneumoniae; settings: CLSI broth dilution, MHB, 37°C, 20 h, OD630, at least three repeats; clinical isolate, CRE
Text: as §2

E. faecium 898 [17] = assay: MIC, broth dilution; assay type: cell-based, Enterococcus faecium; settings: CLSI broth dilution, MHB, 37°C, 20 h, OD630, at least three repeats; clinical isolate
Text: as §2

Compound | Drug sensitivity of the isolate to the antibiotic (S. epidermidis 888 [1]) | Drug sensitivity of the isolate to the antibiotic (S. epidermidis 6943 [2]) | Drug sensitivity of the isolate to the antibiotic (S. epidermidis 9092 [3]) | Drug sensitivity of the isolate to the antibiotic (E. faecalis 901 [4]) | Drug sensitivity of the isolate to the antibiotic (E. faecium 898 [5]) | Drug sensitivity of the isolate to the antibiotic (S. aureus 9124 [6]) | Drug sensitivity of the isolate to the antibiotic (S. aureus 1176 [7]) | Drug sensitivity of the isolate to the antibiotic (S. aureus 4188 [8]) | further results
CC[C@H]1OC(=O)[C@H](C)[C@@H](O[C@H]2C[C@@](C)(OC)[C@@H](O)[C@H](C)O2)[C@H](C)[C@@H](O[C@@H]2O[C@H](C)C[C@H](N(C)C)[C@H]2O)[C@](C)(O)C[C@@H](C)C(=O)[C@H](C)[C@@H](O)[C@]1(C)O [Erythromycin] | R | R | R | R | R | R | R | S | 
CNC(C)C1CCC(N)C(OC2C(N)CC(N)C(OC3OCC(C)(O)C(NC)C3O)C2O)O1 (stereo not shown) [Gentamicin] | R | S | R | R | R | S | S | S | 
CC[C@H](C)[C@H](NC(=O)CN)C(=O)NCC(=O)N[C@@H](C)C(=O)N[C@H](C(=O)N[C@@H](CC(C)C)C(=O)N[C@@H](CCCCN)C(=O)N[C@H](C(=O)N[C@@H](CC(C)C)C(=O)N[C@H](C(=O)N[C@H](C(=O)NCC(=O)N[C@@H](CC(C)C)C(=O)N1CCC[C@H]1C(=O)N[C@@H](C)C(=O)N[C@@H](CC(C)C)C(=O)N[C@H](C(=O)N[C@@H](CO)C(=O)N[C@@H](Cc1c[nH]c2ccccc12)C(=O)N[C@H](C(=O)N[C@@H](CCCCN)C(=O)N[C@@H](CCCNC(=N)N)C(=O)N[C@@H](CCCCN)C(=O)N[C@@H](CCCNC(=N)N)C(=O)N[C@@H](CCC(N)=O)C(=O)N[C@@H](CCC(N)=O)C(N)=O)[C@@H](C)CC)[C@@H](C)CC)[C@@H](C)O)[C@@H](C)O)C(C)C)C(C)C [Melittin] |  |  |  |  |  |  |  |  | MIC (E. coli 2687): 2.5 µg/mL (≈ 0.878 µM); MIC (E. coli 2678): 5 µg/mL (≈ 1.76 µM); MIC (E. coli ATCC35218): 5 µg/mL (≈ 1.76 µM); MIC (A. baumannii ATCC 19606): 2.5 µg/mL (≈ 0.878 µM); MIC (P. aeruginosa 9042): 5 µg/mL (≈ 1.76 µM); MIC (P. aeruginosa 9014): 5 µg/mL (≈ 1.76 µM); MIC (A. baumannii 13079): 2.5 µg/mL (≈ 0.878 µM); MIC (A. baumannii 9068): 2.5 µg/mL (≈ 0.878 µM); MIC (A. baumannii 906): 2.5 µg/mL (≈ 0.878 µM); MIC (A. baumannii 13012): 2.5 µg/mL (≈ 0.878 µM); MIC (S. aureus 9124 [9]): 2.5 µg/mL (≈ 0.878 µM); MIC (S. aureus 1176 [10]): 5 µg/mL (≈ 1.76 µM); MIC (S. aureus 4188 [11]): 2.5 µg/mL (≈ 0.878 µM); MIC (S. epidermidis 888 [12]): 2.5 µg/mL (≈ 0.878 µM); MIC (S. epidermidis 6943 [13]): 2.5 µg/mL (≈ 0.878 µM); MIC (S. epidermidis 9092 [14]): 2.5 µg/mL (≈ 0.878 µM); MIC (E. faecalis 901 [15]): 2.5 µg/mL (≈ 0.878 µM); MIC [16]: 5 µg/mL (≈ 1.76 µM); MIC (K. pneumoniae 9126): 5 µg/mL (≈ 1.76 µM); MIC (E. faecium 898 [17]): 5 µg/mL (≈ 1.76 µM)
CO[C@H]1/C=C/O[C@@]2(C)Oc3c(C)c(O)c4c(O)c(c(/C=N/N5CCN(C)CC5)c(O)c4c3C2=O)NC(=O)/C(C)=C\C=C\[C@H](C)[C@H](O)[C@@H](C)[C@@H](O)[C@@H](C)[C@H](OC(C)=O)[C@@H]1C [Rifampin] | S | S | S | R | R | S | S | S | 
Penicillin | S | R | R | S | R | R | R | R | 
